# What was measured:
# S. sobrinus GTF = test: ELISA of serum IgG antibody reacting with intact S. sobrinus GTF; assay type: in vivo; settings: 63 day sera, n=4-5 per group; FIG. 3
# Description: Glucosyltransferases: Glucosyltransferases (GTF) from S. sobrinus strain 6715 were purified from culture supernatants after bacterial growth in glucose-containing defined media, as described in Taubman et al. (J. Oral Pathol. 17:466-470 (1988)). Enzymes were separated from other culture supernatant proteins by affinity chromatography on Sephadex G-100 (Pharmacia Fine Chemicals), using 6M guanidine HCl as the eluting solvent. GTFs were then obtained from the guanidine HCl eluate by FPLC chromatography on Superose 6 (Pharmacia) using 6M guanidine for elution. GTF preparations contained a mixture of GTF-I, GTF-Sd, and GTF-Si.
# (§1) Immunogenicity of Peptides: Sprague Dawley CD strain 43 day-old male rats (Charles River Laboratories) were used for injection. Six groups of 4-5 rats were injected subcutaneously in the vicinity of the salivary glands with 50 μg each of GGY, AND, SAND or CAT peptide constructs, 10 μg of GTF, or sham-immunized with buffer alone. The initial injection included complete Freund adjuvant (CFA; Difco); two subsequent injections at 21-day intervals included incomplete Freund adjuvant. Animals were bled prior to injection and 14-21 days after each injection. Serum from coagulated and centrifuged blood was stored frozen at −20° C. until use.
# (§2) ELISA: Serum IgG and salivary IgA antibodies were tested by enzyme-linked immunosorbent assay (ELISA). Polystyrene microtiter plates (Flow Laboratories) were coated with […] of each peptide construct or 0.5 μg of S. sobrinus GTF. Antibody activity was then measured by incubation with 1:100 to 1:10^6 dilutions of sera, or 1:4 to 1:32 dilutions of saliva. Plates were then developed for IgG antibody rabbit anti-rat IgG followed in sequence by alkaline phosphatase goat anti-rabbit IgG (Biosource Inc.) and p-nitrophenylphosphate (Sigma). A mouse monoclonal reagent to rat α chain (Zymed, South San Francisco, Calif.) was used with biotinylated goat anti-mouse IgG (TAGO, Inc., Burlingame, Calif.) and avidin-alkaline phosphatase (Cappel) to reveal levels of salivary IgA antibody to peptides. Reactivity was recorded as absorbance (A405 nm) in a micro plate reader (Biotek Instruments). Data are reported as absorbance (A405 nm), reciprocal titer, or as ELISA units (EU) which were calculated relative to the levels of appropriate reference sera or salivas from Sprague Dawley rats thrice immunized with the respective peptide construct. Dilutions of 1:12,800 and 1:6,400 (A405 nm approximately 1.0) were considered 100 EU for serum IgG to the GGY and AND constructs, respectively. Dilutions of 1:32 were considered 100 EU for salivary IgA to both GGY and AND constructs.
# [1] = tested on: inducing peptide construct; test: ELISA of serum IgG antibody to the inducing (homologous) peptide construct in immunized rats; assay type: in vivo, Sprague Dawley rats; settings: for IgG antibody levels to GGY: pre-infection sera
# Experimental: as §1, §2
# (§3) Two experiments were performed. Groups (n=11-12) of 23-26 day-old rats were subcutaneously (sc) injected in the salivary gland vicinity with (experiment 1) GGY (50 μg), AND (50 μg) or GTF(10 μg), or phosphate buffered saline (control animals), or (experiment 2) GGY (50 ;μg) or PBS. Each antigen was incorporated with complete Freund adjuvant in both experiments. Eight (experiment 1) or 14 (experiment 2) days later, rats were reinjected with PBS or with the same antigen and dose in incomplete Freund adjuvant. Six (experiment 1) or 12 (experiment 2) days after the second injection, animals were bled from the tail vein, and saliva was collected after injection of pilocarpine (1.0 mg/100 g body weight). Fourteen (experiment 1) or 11 (experiment 2) days after the second injection, all rats were orally infected with approximately 10^8 S. mutans for 3 consecutive days. Both experiments were terminated 63 days after initial infection.
# (§4) Two experiments were performed to measure the effect of immunization with the eight-branched GGY and AND peptide constructs on experimental dental caries in the Sprague-Dawley rat. In the first experiment, groups of rats were immunized with GGY or AND peptide constructs. In the second experiment groups of rats were immunized only with the GGY peptide construct. Pre-infection sera and salivas were collected for antibody measurement in 39 day old rats in experiment 1 (6 days after the second injection) and 51 day old rats in experiment 2 (12 days after the second injection). In the GGY-immunized rat groups, IgG antibody levels to GGY (experiment 1=21.9+17.8 EU; experiment 2=108.0±4.0 EU) were elevated above those of the sham-immunized groups (experiment 1=1.7±0.2 EU; experiment 2=4.0±3.0 EU) in both experiments and reached statistical significance (p<0.002) in experiment 2.
# AND peptide construct = target: T1, AND peptide construct (Streptococcus mutans serotype c, UniProt P08987); test: Cross-reactivity ELISA, plates coated with AND peptide construct; assay type: binding; settings: day 63 sera; FIG. 4
# T1 construct: GGY and AND were 19-mer peptides; purchased Applied Diagnostics, Foster City, Calif; host or cells: chemical solid phase synthesis
# Experimental: as §1
# ELISA: Serum IgG and salivary IgA antibodies were tested by enzyme-linked immunosorbent assay (ELISA). Polystyrene microtiter plates (Flow Laboratories) were coated with […] of each peptide construct or 0.5 μg of S. sobrinus GTF. Antibody activity was then measured by incubation with 1:100 to 1:10^6 dilutions of sera, or 1:4 to 1:32 dilutions of saliva. […] Reactivity was recorded as absorbance (A405 nm) in a micro plate reader (Biotek Instruments). Data are reported as absorbance (A405 nm), reciprocal titer, or as ELISA units (EU) which were calculated relative to the levels of appropriate reference sera or salivas from Sprague Dawley rats thrice immunized with the respective peptide construct. […]
# [2] = tested on: inducing peptide construct; test: ELISA of salivary IgA antibody to the inducing (homologous) peptide construct in immunized rats; assay type: in vivo, Sprague Dawley rats; settings: for rats with significant levels of salivary IgA antibody: GGY- and AND-injected rats counted together; for Salivary IgA antibody levels to GGY: pre-infection saliva
# Experimental: as §1, §2, §3, §4
sequence,measurement,setting,value
GGYEFLLANDVDNSNPVVQ,IgG antibody reactivity with intact S. sobrinus GTF,S. sobrinus GTF,significant reactivity with GTF
same,responding rats (serum IgG),"[1]; immunization began on day 43 of life, bled 21 days later (day 64 of life), immunogenicity experiment",4/4
same,immunogenicity (percentage of animals responding and titer of responding sera),"[1]; immunogenicity experiment, FIG. 1",at least as high as observed for the positive control CAT peptide
same,effect of subsequent immunization on serum IgG titers,"[1]; immunogenicity experiment, day 21 (one injection) vs day 63 (three injections)",sufficient to induce maximal serum IgG antibody to GGY
same,serum IgG antibody to the inciting antigen after the first injection,"[1]; immunogenicity experiment, rats 43 days old at start, 50 μg sc in CFA, day 21",induced serum IgG antibody to the inciting antigen after the first injection in all rats
same,IgG antibody levels to GGY,"[1]; protection experiment 1, 39 day old rats, 6 days after the second injection",21.9 ± 17.8 EU
same,levels of serum IgG antibody (in words),"[1]; protection experiment 1, weanling rats, two injections eight days apart, bled 14 days after onset (day 39 of life)",modest levels
same,IgG antibody levels to GGY,"[1]; protection experiment 2, 51 day old rats, 12 days after the second injection, p<0.002 vs sham",108.0±4.0 EU
same,positively responding rats (serum IgG),"[1]; protection experiment 2, weanling rats, two injections 14 days apart, bled 26 days after onset (day 51 of life)",8/11
same,levels of serum IgG antibody (in words),"[1]; protection experiment 2, weanling rats, two injections 14 days apart, bled day 51 of life",significantly elevated levels of serum IgG antibody
same,reaction of serum IgG antibody with the AND peptide construct,AND peptide construct,significant reaction
same,rats with significant levels of salivary IgA antibody,[2]; day 21 (one injection),7/9
same,rats with significant levels of salivary IgA antibody,[2]; day 63 (three injections),8/9
same,Salivary IgA antibody levels to GGY,"[2]; protection experiment 1, 39 day old rats",5.0±2.0 EU
same,Salivary IgA antibody levels to GGY,"[2]; protection experiment 2, 51 day old rats",11.7±4.8 EU
